Consider 2 molecules from article PMC7324975 (BMC Cancer, 2020).

The test system of one experiment is CT26 cells. The experiment in a line: WST1 cell viability assay. The class given is cell-based, mice. The note with it: 24 h; for anti-tumor efficacy (cell viability), single use: C: 0 ~ 160 μM, R: 12.5 ~ 200 μM; for IC50: Mus musculus, WST1. In general terms: Tetrazolium assays rely on reduction of a dye to a coloured formazan, in cell work by metabolically active cells.

The next experiment has as its system Caspase-3. The experiment in a line: Western blot of Caspase-3 cleavage form. The class given is cell-based, mice. Conditions: CT26 cells, 3 h, single agents. How it is done: The CT26 cell lysates from the variety of the treatments were prepared using RIPA lysis buffer for immunoblotting of Cyclin D1 (Cell Signaling Technology, #92G2), Cyclin A (Santa Cruz Biotechnology, #sc-271,645), Hsp70 (Santa Cruz Biotechnology, #SC24), Caspase-3, and cleavage form of Caspase-3 (Cell Signaling Technology, #9662S). Western blot analysis was performed as previously reported.
Background: In western blotting, separated proteins are transferred to a membrane and probed.

Description for CT26 cells: The mice colon cancer cell line, CT26, was provided by Johnpro Biotech (Taipei, Taiwan). The cells were maintained in ATCC-formulated RPMI-1640 Medium containing 10% heat-inactivated fetal bovine serum (FBS) and 1% antibiotic-antimycotic (GM) in a humidified incubator with 5% CO2 at 37 °C. […] The cell viability was determined through WST1 assay (Roche, Germany) after the 24-h treatment.

The IC50 is the concentration at which inhibition is half-maximal. A high value points to weaker potency in that assay. In the case of `COc1cc(/C=C/C(=O)CC(=O)/C=C/c2ccc(O)c(OC)c2)ccc1O` [Curcumin, curcumin], in the experiment with CT26 cells, the “anti-tumor efficacy (cell viability), single use” value is on record as “dose-dependent” and the IC50 amounted to 26.8 ± 1.06 µM. For the same molecule, the “cleavage form of Caspase-3” value with Caspase-3 is “increased”.

With `Oc1ccc(/C=C/c2cc(O)cc(O)c2)cc1` [Resveratrol, resveratrol], in the experiment with CT26 cells, the “anti-tumor efficacy (cell viability), single use” value is on record as “dose-dependent” and inhibition was half-maximal at 88.8 ± 1.07 µM (IC50). In addition, the “cleavage form of Caspase-3” value in the experiment on Caspase-3 was “increased”.
